Experimental findings from ChEMBL document CHEMBL1201862, “PubChem BioAssay data set” (2004) are described below.

What all share (assay): NCI anticancer screen, dose series, 48 h
In test [1] the test system is ACHN.
Test [2] relates to HCT-15.
For test [3], the system named is HL-60.
The subject of test [4] is HOP-92.
In test [5] the test system is IGROV-1.
Test [6] concerns K562.
In test [7] the test system is KM12.
For test [8], the system named is M14.
The subject of test [9] is MDA-MB-231.
The test system of test [10] is MDA-N.
Test [11] relates to NCI-H226.
For test [12], the system named is RXF 393.
Test [13] relates to SF-539.
Test [14] deals with SK-MEL-28.
Test [15] deals with SK-MEL-2.
Test [16] deals with SK-MEL-5.
Test [17] concerns SK-OV-3.
The subject of test [18] is SNB-75.
Test [19] concerns SW-620.
Test [20] has as its system UACC-257.

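Assay format: 96-well plates, 48-hour exposure. GI50 = concentration required for 50% inhibition of growth.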 Activity calls are given as the source filed them. Rule as the data show it: active = GI50 up to about 1.1 µM and inactive = higher.

Take `O=C(NCCCCCCNC(=O)n1cc(F)c(=O)[nH]c1=O)NCCCOCCOCCOCCOCCOCCOCCOCCOCCOCCOCCOCCOCCOCCOCCOCCOCCOCCOCCOCCOCCOCCCNC(=O)C(O)C(O)C(O)C(O)CO` (stereo not given): the GI50 in test [1] is 26.7 µM (inactive); in test [2], 21 µM; in test [3] it was 20.8 µM (inactive); in test [4], > 18.4 µM (inactive); in [5], 60.1 µM (inactive); in test [6], 34.8 µM (inactive). Besides, the GI50 in test [7] is 31.7 µM (inactive); in test [8], 75.3 µM (inactive); in [9] it was > 100 µM (inactive); in test [10], 33.9 µM (inactive); in [11], > 100 µM (inactive); in test [12] it was 43.2 µM (inactive). Moreover, the GI50 is 1.81 µM (inactive) in test [13]; 16.3 µM (inactive) in test [14]; > 100 µM (inactive) in test [15]; 51.9 µM (inactive) in test [16]; > 100 µM (inactive) in [17]; 73.1 µM (inactive) in test [18]. Further, the GI50 is 53.8 µM (inactive) in test [19] and > 90.2 µM (inactive) in [20].

As to `COC(=O)C1=C([C@H]2COC(C)(C)O2)[C@H]2C[C@@H]1[C@@H]1OC(C)(C)O[C@@H]12`, the GI50 is > 100 µM (inactive) in test [1]; above 100 µM in test [2]; > 100 µM (inactive) in test [3]; 38.7 µM (inactive) in test [4]; > 100 µM (inactive) in test [5]; > 100 µM (inactive) in test [6]. Moreover, the GI50 in test [7], in test [8], in [9], in test [10], in test [11] and in test [12] was > 100 µM (inactive) in each case. The GI50 in test [13], in test [14], in test [15], in test [16], in test [17] and in test [18] was > 100 µM (inactive) throughout. Moreover, the GI50 in test [19] and in test [20] was > 100 µM (inactive) each time.
